Results published in patent US11076594B2, “Pyrazolone compound or salt thereof, preparation method therefor, herbicide composition and use thereof” (QINGDAO KINGAGROOT CHEMICAL COMPOUNDS CO., LTD., priority 2015, dated 2021).

Tests used:
Type in all cases: in vivo
bidens bipinnata = assay: weed control effect in post-emergence stage (Table 1); parameters: key: Level 10: completely dead; Level 9: above 95% growth control rate; Level 8: above 90% growth control rate; Level 7: above 80% growth control rate; Level 6: above 70% growth control rate; Level 5: above 60% growth control rate; Level 4: above 50% growth control rate; Level 3: above 20% growth control rate; Level 2: 5%-20% growth control rate; Level 1: below 5% growth control rate; conditions: post-emergence spray at 4-5 leaf stage, 250 g/ha active ingredient with 450 kg/ha water, rated after 3 weeks in greenhouse
Method in brief: (§1)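 Seeds were sown in pots, covered with 0.5-2 cm soil and grown in a greenhouse. At the 4-5 leaf stage, plants were sprayed with the test compound formulated in acetone, Tween 80 and water. Fresh weight control was rated after 3 weeks.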

Indian mallow = assay: as above; parameters: key: Level 10: completely dead; Level 9: above 95% growth control rate; Level 8: above 90% growth control rate; Level 7: above 80% growth control rate; Level 6: above 70% growth control rate; Level 5: above 60% growth control rate; Level 4: above 50% growth control rate; Level 3: above 20% growth control rate; Level 2: 5%-20% growth control rate; Level 1: below 5% growth control rate; conditions: post-emergence spray at 4-5 leaf stage, 250 g/ha active ingredient with 450 kg/ha water, rated after 3 weeks in greenhouse
Method in brief: as §1

rorippa indica = assay: as above; parameters: key: Level 10: completely dead; Level 9: above 95% growth control rate; Level 8: above 90% growth control rate; Level 7: above 80% growth control rate; Level 6: above 70% growth control rate; Level 5: above 60% growth control rate; Level 4: above 50% growth control rate; Level 3: above 20% growth control rate; Level 2: 5%-20% growth control rate; Level 1: below 5% growth control rate; conditions: post-emergence spray at 4-5 leaf stage, 250 g/ha active ingredient with 450 kg/ha water, rated after 3 weeks in greenhouse
Method in brief: as §1

echinochloa = assay: as above; parameters: key: Level 10: completely dead; Level 9: above 95% growth control rate; Level 8: above 90% growth control rate; Level 7: above 80% growth control rate; Level 6: above 70% growth control rate; Level 5: above 60% growth control rate; Level 4: above 50% growth control rate; Level 3: above 20% growth control rate; Level 2: 5%-20% growth control rate; Level 1: below 5% growth control rate; conditions: post-emergence spray at 4-5 leaf stage, 250 g/ha active ingredient with 450 kg/ha water, rated after 3 weeks in greenhouse
Method in brief: as §1

crab grass = assay: as above; parameters: key: Level 10: completely dead; Level 9: above 95% growth control rate; Level 8: above 90% growth control rate; Level 7: above 80% growth control rate; Level 6: above 70% growth control rate; Level 5: above 60% growth control rate; Level 4: above 50% growth control rate; Level 3: above 20% growth control rate; Level 2: 5%-20% growth control rate; Level 1: below 5% growth control rate; conditions: post-emergence spray at 4-5 leaf stage, 250 g/ha active ingredient with 450 kg/ha water, rated after 3 weeks in greenhouse
Method in brief: as §1

foxtail = assay: as above; parameters: key: Level 10: completely dead; Level 9: above 95% growth control rate; Level 8: above 90% growth control rate; Level 7: above 80% growth control rate; Level 6: above 70% growth control rate; Level 5: above 60% growth control rate; Level 4: above 50% growth control rate; Level 3: above 20% growth control rate; Level 2: 5%-20% growth control rate; Level 1: below 5% growth control rate; conditions: post-emergence spray at 4-5 leaf stage, 250 g/ha active ingredient with 450 kg/ha water, rated after 3 weeks in greenhouse
Method in brief: as §1

wheat [1] = assay: wheat field test, crop selectivity, greenhouse spray at 4 leaf stage; conditions: 4 weeks after treatment
Method in brief: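 Compounds in acetone were mixed with methyl oleate emulsion, diluted with water and applied with a sprayer to greenhouse plants at the 4 leaf stage. Growth control, expressed as fresh weight control rate, was assessed after 4 weeks of further culture.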

rice = assay: post-emergence stage experiment, crop (Table 1); conditions: post-emergence spray at 4-5 leaf stage, 250 g/ha active ingredient with 450 kg/ha water, rated after 3 weeks in greenhouse
Method in brief: as §1

rice (japonica rice) = assay: transplanted rice safety evaluation; conditions: 125 g/ha ai; treated 5 days after transplantation; 21 days after treatment
Procedure: The activity level standard of harmful plant destruction (i.e. growth control rate) is as follows: In addition, the rice field soil that loaded into the 1/1,000,000 ha pot was leveled to keep water storage at 3-4 cm depth. The 3 leaf stage rice (japonica rice) was transplanted at 3 cm of transplanting depth the next day. The compound of the present invention was treated by the same way after 5 days of transplantation. The fertility condition of echinochloa, scirpus juncoides, bidens tripartite and sagittaria trifolia 14 days after the treatment of the compound of the invention and the fertility condition of rice 21 days after the treatment of the compound of the invention respectively with the naked eye.

wheat [2] = assay: post-emergence stage experiment, crop (Table 1); conditions: post-emergence spray at 4-5 leaf stage, 250 g/ha active ingredient with 450 kg/ha water, rated after 3 weeks in greenhouse
Method in brief: as §1

corn = assay: post-emergence stage experiment, crop (Table 1); conditions: post-emergence spray at 4-5 leaf stage, 250 g/ha active ingredient with 450 kg/ha water, rated after 3 weeks in greenhouse
Method in brief: as §1

[3] = 2 g/mu, sprayed at 4 leaf stage
[4] = 4 g/mu, sprayed at 4 leaf stage
[5] = 8 g/mu, sprayed at 4 leaf stage
[6] = 16 g/mu, sprayed at 4 leaf stage
[7] = 32 g/mu, sprayed at 4 leaf stage
[8] = 250 g/ha of the active substance

SMILES | weed control effect, Bidens bipinnata (level) (bidens bipinnata) | weed control effect, Indian mallow (level) (Indian mallow) | weed control effect, Rorippa indica (level) (rorippa indica) | weed control effect, Echinochloa (level) (echinochloa) | weed control effect, Crab grass (level) (crab grass) | weed control effect, Green foxtail (level) (foxtail) | Wheat (activity level, crop damage) (wheat [1]; [3]) | Wheat (activity level, crop damage) (wheat [1]; [4]) | Wheat (activity level, crop damage) (wheat [1]; [5]) | Wheat (activity level, crop damage) (wheat [1]; [6]) | Wheat (activity level, crop damage) (wheat [1]; [7]) | effect on crop, Rice (level) (rice) | Rice (activity level, transplanted rice safety) (rice (japonica rice)) | effect on crop, Wheat (level) (wheat [2]) | effect on crop, Corn (level) (corn) | Wheat (activity level, crop damage) (wheat [1]; [8])
Cc1nn(C)c(O)c1C(=O)c1ccc(C(F)(F)F)c(N2CCCCC2=O)c1Cl [Compound 035] | 9 (Level 9: above 95% growth control rate) | 9 (Level 9: above 95% growth control rate) | 9 (Level 9: above 95% growth control rate) | 7 (Level 7: above 80% growth control rate) | 8 (Level 8: above 90% growth control rate) | 10 | 0 | 0 | 0 | 0 | 0 | 6 (Level 6: above 70% growth control rate) | 0 | 0 | – | –
Cc1nn(C)cc1C(=O)Oc1c(C(=O)c2ccc(C(F)(F)F)c(N3CCCC3=O)c2Cl)c(C)nn1C [Compound 023] | 10 | 10 | 10 | 10 | 10 | 10 | 1 (Level 1: below 5% growth control rate) | 2 (Level 2: 5%-20% growth control rate) | 3 (Level 3: above 20% growth control rate) | 4 (Level 4: above 50% growth control rate) | 4 (Level 4: above 50% growth control rate) | 4 (Level 4: above 50% growth control rate) | 0 | 4 (Level 4: above 50% growth control rate) | 5 (Level 5: above 60% growth control rate) | –
CCOc1c(C(=O)Oc2c(C(=O)c3ccc(C(F)(F)F)c(-n4cc(C)cn4)c3Cl)c(C3CC3)nn2C)cnn1C [Compound 092] | 8 (Level 8: above 90% growth control rate) | 10 | 10 | 6 (Level 6: above 70% growth control rate) | 3 (Level 3: above 20% growth control rate) | 8 (Level 8: above 90% growth control rate) | – | – | – | – | – | 2 (Level 2: 5%-20% growth control rate) | 0 | 1 (Level 1: below 5% growth control rate) | 2 (Level 2: 5%-20% growth control rate) | 1 (Level 1: below 5% growth control rate)
CCOc1c(C(=O)Oc2c(C(=O)c3ccc(C(F)(F)F)c(-n4cc(C)cn4)c3Cl)cnn2C)cnn1C [Compound 081] | 10 | 10 | 10 | 10 | 7 (Level 7: above 80% growth control rate) | 8 (Level 8: above 90% growth control rate) | – | – | – | – | – | 3 (Level 3: above 20% growth control rate) | 1 (Level 1: below 5% growth control rate) | 0 | 2 (Level 2: 5%-20% growth control rate) | 0
CCOc1c(C(=O)Oc2c(C(=O)c3ccc(C(F)(F)F)c(N4CCCCC4=O)c3Cl)c(C)nn2C)cnn1C [Compound 037] | 10 | 10 | 10 | 10 | 6 (Level 6: above 70% growth control rate) | 10 | – | – | – | – | – | 3 (Level 3: above 20% growth control rate) | 2 (Level 2: 5%-20% growth control rate) | 0 | 0 | 0
CCn1nc(C)c(C(=O)c2ccc(C(F)(F)F)c(-n3cccn3)c2Cl)c1OC(=O)c1cn(C)nc1C [Compound 129] | 9 (Level 9: above 95% growth control rate) | 3 (Level 3: above 20% growth control rate) | 10 | 10 | 0 | 10 | – | – | – | – | – | 6 (Level 6: above 70% growth control rate) | 2 (Level 2: 5%-20% growth control rate) | 1 (Level 1: below 5% growth control rate) | 3 (Level 3: above 20% growth control rate) | 1 (Level 1: below 5% growth control rate)
CCOc1c(C(=O)Oc2c(C(=O)c3ccc(C(F)(F)F)c(-n4cccn4)c3Cl)c(C)nn2C)cnn1C [Compound 071] | 7 (Level 7: above 80% growth control rate) | 10 | 10 | 6 (Level 6: above 70% growth control rate) | 4 (Level 4: above 50% growth control rate) | 8 (Level 8: above 90% growth control rate) | – | – | – | – | – | 1 (Level 1: below 5% growth control rate) | 0 | 0 | 1 (Level 1: below 5% growth control rate) | 0
